For 7 compounds, IC50 results are on record in BindingDB's records for PubMed 36325400 (Prince Sattam Bin Abdulaziz University, 2022).

In general, IC50 refers to the concentration that gives 50% inhibition.

The target of this test is Phospholipase A2 group V (Homo sapiens) (UniProt P39877). Description: Inhibition of recombinant human sPLA2-V.
Sequence of Phospholipase A2 group V (Homo sapiens) (P39877 whole entry, looked up): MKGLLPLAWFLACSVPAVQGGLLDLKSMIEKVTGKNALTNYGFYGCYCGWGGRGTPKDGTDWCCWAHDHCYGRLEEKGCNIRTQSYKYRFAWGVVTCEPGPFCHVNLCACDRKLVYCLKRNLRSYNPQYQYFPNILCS

Take `COc1ccnc(Nc2n[nH]c(N)c2C#N)c1`: the IC50 was 3100 nM.
For the compound `COc1ccnc(Nc2nn3c(SC)c(C#N)c(N)nc3c2C#N)c1`, the IC50 came to 2600 nM.
As for `COc1ccnc(Nc2nn3c(SC)c(C#N)c(O)nc3c2C#N)c1`, the IC50 was determined as 1000 nM.
With `COc1ccnc(Nc2nn3c(C)cc(C)nc3c2C#N)c1` the figure was 3200 nM.
As for `CCOc1cc(C)nc2c(C#N)c(Nc3cc(OC)ccn3)nn12`, the IC50 came to 1700 nM.
For the compound `CCOc1cc(N)n2nc(Nc3cc(OC)ccn3)c(C#N)c2n1`, the IC50 turned out to be 3200 nM.
`C[C@@H]1C[C@H]2[C@@H]3CCC4=CC(=O)C=C[C@]4(C)[C@@]3(F)[C@@H](O)C[C@]2(C)[C@@]1(O)C(=O)CO` [dexamethasone (tetramethyl-rhodamine conjugated )]: the IC50 was determined as 590 nM.
